A short description of data set [1]: AUC in Sprague-Dawley rat at 1 mg/kg, iv by LC/MS/MS analysis. The format is ADME, organism-based. To be noted: in vivo.
A short description of data set [2]: Volume of distribution at steady state in Sprague-Dawley rat at 1 mg/kg, iv by LC/MS/MS analysis. It is filed as ADME, organism-based. To be noted: in vivo, read-out: Vdss.

For the compound `N#Cc1cccc(N2CCN(CCCCNC(=O)c3ccc(-c4ccsc4)cc3)CC2)c1`, in data set [1], the AUC (in general, concentration integrated over time) worked out at 220 ng·h/mL. In addition, the Vd in data set [2] was found to be 28.6 L/kg.
With `O=C(NCCCCN1CCN(c2cc(Cl)cc(Cl)c2)CC1)c1ccc(-c2ccsc2)cc1`, the AUC in data set [1] came to 210 ng·h/mL. Besides, the Vd in data set [2] was 55.7 L/kg.

Source of the values: ChEMBL document CHEMBL4346764, “Design, synthesis, and evaluation of N-(4-(4-phenyl piperazin-1-yl)butyl)-4-(thiophen-3-yl)benzamides as selective dopamine D3 receptor ligands” (Bioorg Med Chem Lett, 2019).
